This is an account of results in US20070196848A1, “DETECTION OF PHOSPHORYLATED eIF2-alpha AS A DIAGNOSTIC TEST FOR EFFICACY AND SENSITIVITY OF TRANSLATION INITIATION INHIBITORS IN THE TREATMENT OF CANCER AND OTHER PROLIFERATIVE DISEASES” (priority 2004, published 2007).

For data set [1], the system named is 5′ UTR of BRCA1 mRNA. The data set can be described thus: firefly luciferase reporter with 5′ UTR of BRCA1 mRNAa or mRNAb in MCF-7 cells. The data set is classed as cell-based, human. As to conditions: renilla luciferase internal control. From the text:
(§1) FIGS. 4A-4C depict dose-dependent up-regulation of BRCA1 in MCF-7 breast cancer cells by EPA (A) and CLT (B). Upper bands, BRCA1; lower bands, actin.
(§2) MCF-7 breast cancer cells, known to have very low levels of BRCA1 protein, were exposed to CLT and EPA. […] To confirm that up-regulation of BRCA1 was at the level of translation, the 5′ UTRs of either BRCA1 mRNAa or mRNAb were placed in front of the firefly luciferase reporter gene using in both cases renilla luciferase as an internal control. These constructs were transfected into MCF-7 breast cancer cells. […] Without intending to be bound by theory, these experiments indicate that the inhibitors of translation initiation that induce phosphorylation of eIF2α restrict the availability of the ternary complex to translationally up-regulate the tumor suppressor gene BRCA1, a critical player in many types of sporadic breast and ovarian cancers.

Data set [2] relates to BRCA1. The experiment in a line: BRCA1 expression in MCF-7 breast cancer cells. As to conditions: MCF-7 cells, dose-dependent. In kind it is cell-based, human.
From the text: as §1, §2

Data set [3] relates to p53^−/− mice. From the text:
p53 is the most commonly mutated gene in human cancers. The anti-cancer activity of EPA was investigated in p53^−/− mice, which develop a wide variety of spontaneous tumors with 100% penetrance and die from cancer within 50 weeks of age. Age and sex matched animals were randomly distributed to treatment (2.5 grams/kilogram EPA) or control (2.5 grams/kilogram corn oil) administered daily by gavage.

Data set [4] concerns PC-3 human prostate tumors. The experiment in a line: orthotopic xenograft model of human prostate cancer, survival. The data set is classed as in vivo, mouse. To be noted: PC-3 orthotopic, gavage 2.5 grams/kilogram/day. From the text:
FIGS. 14A-14F depict the effect of EPA on xenograft cancer models. (A) EPA increased the mean survival time in an orthotopic model of PC-3 human prostate tumors (left, corn oil; right, EPA). (B) EPA reduced tumor growth in an orthotopic syngenic model of KLN mouse squamous cell carcinoma (5 weeks) (left, corn oil; right, EPA). (C) EPA induced phosphorylation of eIF2α in the KLN tumors (left, corn oil; middle, EPA1;
Human PC-3 prostate cancer cells stably transfected with the GFP fluorescent marker were implanted into mouse prostate glands and tumors were allowed to establish. Mice with tumors detectable by whole body fluorescent scanning were treated with EPA or corn oil, orally administered by gavage (2.5 grams/kilogram/day).

Data set [5] relates to eIF2α phosphorylation. The data set can be described thus: immunoblot with anti-S51-P-eIF2α-specific antibody in DU-145 cells. As to conditions: two hours. The data set is classed as cell-based, human.
Method: To investigate whether depletion of Ca^++ stores by EPA causes activation of eIF2α kinases and phosphorylation of eIF2α in prostate cancer cells, DU-145 cells were incubated with or without increasing concentrations of EPA for two hours.
Data set [6] has as its system DU-145 cells transfected with eIF2α51A. The experiment in a line: cell cycle distribution of GFP expressing cells by FACS. In kind it is cell-based, human. To be noted: 51A, GFP-expressing DU-145 cells. As for the experimental part:
(§3) FIG. 10 depicts cell cycle inhibition by EPA that is dependent on eIF2α phosphorylation. DU-145 human prostate cancer cell lines were transiently transfected with eIF2α-51A-GFP or eIF2α-WT-GFP plasmids, treated with EPA or vehicle, stained with propidium iodide and cell cycle distribution of GFP transfected cells was determined.
(§4) eIF2α51A is a […] non-phosphorylatable mutant of eIF2α in which serine 51 has been replaced by alanine (FIG. 9). To confirm that eIF2α phosphorylation is also critical for EPA-mediated inhibition of cell proliferation in prostate cancer cells, DU-145 cells were transiently transfected with a construct that co-expresses the fluorescent marker GFP with either eIF2αWT (i.e., eIF2α wild-type) or eIF2α51A. These cells were treated with either EPA or vehicle DMSO, and the cell cycle distribution of GFP expressing cells was determined by FACS analysis.

Data set [7] deals with DU-145 cells transfected with eIF2αWT. The data set is described as above. In kind it is cell-based, human. As to conditions: WT, GFP-expressing DU-145 cells. As for the experimental part:
as §3, §4

Data set [8] has as its system HTB-174. The experiment in a line: sulfarodamine B cell growth assay (SRB). The data set is classed as cell-based. As to conditions: Homo sapiens; HTB-174, Lung. From the text:
The effect of EPA on the proliferation of a panel of cancer cell lines representative of most common human cancers was studied using the sulfarodamine B cell growth assay (SRB).

Data set [9] deals with HeLa. The data set can be described thus: sulfarodamine B cell growth assay (SRB). As to conditions: Homo sapiens, Cervix. The data set is classed as cell-based. From the text:
(§5) The effect of EPA on the proliferation of a panel of cancer cell lines representative of most common human cancers was studied using the sulfarodamine B cell growth assay (SRB). EPA inhibited the proliferation of all cancer cell lines tested, including androgen dependent and androgen independent prostate cancer cell lines (LNCaP, PC-3 and DU-145) in a dose dependent manner (Table 1: effect of EPA on human cancer cello growth).

Data set [10] concerns MMRU. The data set can be described thus: sulfarodamine B cell growth assay (SRB). The data set is classed as cell-based. To be noted: Homo sapiens, Skin.
From the text: as §5

For data set [11], the system named is MDAMB231. The experiment in a line: sulfarodamine B cell growth assay (SRB). In kind it is cell-based. To be noted: Homo sapiens, MDA-MB-231; MDAMB231, Breast.
From the text: as §5

The test system of data set [12] is HCT-15. The data set can be described thus: sulfarodamine B cell growth assay (SRB). As to conditions: Homo sapiens; HCT-15, Colon. In kind it is cell-based.
From the text: as §5

Data set [13] concerns MCF-7. The data set can be described thus: sulfarodamine B cell growth assay (SRB). The data set is classed as cell-based. As to conditions: Homo sapiens, MCF7; MCF-7, Breast.
From the text: as §5

Data set [14] relates to U-118 MG. The experiment in a line: sulfarodamine B cell growth assay (SRB). The data set is classed as cell-based. As to conditions: Homo sapiens, Glioblastoma.
From the text: as §5

The subject of data set [15] is HT-29. The experiment in a line: sulfarodamine B cell growth assay (SRB). As to conditions: Homo sapiens; HT-29, Colon. The data set is classed as cell-based.
From the text: as §5

Data set [16] has as its system Caski-1. The experiment in a line: sulfarodamine B cell growth assay (SRB). In kind it is cell-based. As to conditions: Homo sapiens; Caski-1, Cervix.
From the text: as §5

For data set [17], the system named is A549. The experiment in a line: sulfarodamine B cell growth assay (SRB). The data set is classed as cell-based. As to conditions: Homo sapiens; A549, Lung.
From the text: as §5

For data set [18], the system named is ACHN. The experiment in a line: sulfarodamine B cell growth assay (SRB). The data set is classed as cell-based. As to conditions: Homo sapiens, Kidney.
From the text: as §5

Data set [19] concerns SK-OV3. The data set can be described thus: sulfarodamine B cell growth assay (SRB). In kind it is cell-based. As to conditions: Homo sapiens, SK-OV-3; SK-OV3, Ovary.
From the text: as §5

For data set [20], the system named is SK-Mel-28. The data set can be described thus: sulfarodamine B cell growth assay (SRB). In kind it is cell-based. To be noted: Homo sapiens; SK-Mel-28, Skin.
From the text: as §5

In data set [21] the test system is PC-3. The experiment in a line: sulfarodamine B cell growth assay (SRB). In kind it is cell-based. To be noted: Homo sapiens; PC-3, Prostate.
From the text: as §5

Data set [22] concerns LNCaP. The experiment in a line: sulfarodamine B cell growth assay (SRB). To be noted: Homo sapiens, Prostate. In kind it is cell-based.
From the text: as §5

Data set [23] relates to Hep-G2. The data set can be described thus: sulfarodamine B cell growth assay (SRB). The data set is classed as cell-based. To be noted: Homo sapiens, HepG2; Hep-G2, Liver.
From the text: as §5

In data set [24] the test system is DU-145. The experiment in a line: sulfarodamine B cell growth assay (SRB). The data set is classed as cell-based. To be noted: Homo sapiens; DU-145, Prostate.
From the text: as §5

Turning to `Clc1ccccc1C(c1ccccc1)(c1ccccc1)n1ccnc1` [CLT, clotrimazole], the “translation of reporter fused to 5′ UTR of BRCA1 mRNAb” value in [1] is on record as “significantly up-regulated translation”. The “up-regulation of BRCA1” value in [2] is reported as “significant up-regulation of BRCA1”.

`CC/C=C\C/C=C\C/C=C\C/C=C\C/C=C\CCCC(=O)O` [EPA, eicosapentaenoic acid]: in [3] (mouse, in vivo), the sign of toxicity entry was “Neither control nor EPA treated animals showed any sign of toxicity”. Further, in data set [3] (oral 2.5 grams/kilogram/day from four weeks of age), the “mean survival time (Kaplan-Meier)” value amounted to 385 ± 12 days. Besides, the “longer mean survival time than corn oil” value in data set [4] was determined as 50%. The mean survival time in data set [4] was found to be 38 ± 5 days. The “increase in eIF2α phosphorylation” value in data set [5] is listed as “approximately 10 fold”. Also, the “% G1” value in data set [6] amounted to 48%; in [7], 67%. The “% G2/M” value in [6] is 21%; in data set [7] it was 14%. The “% S” value came to 31% in data set [6] and 19% in data set [7]. Besides, the IC50 is 79 µM in data set [8]; 10 µM in data set [9]; 36 µM in data set [10]; 37 µM in data set [11]; 47 µM in [12]; 43 µM in data set [13]. The IC50 in [14] is 36 µM; in data set [15], 72 µM; in data set [16], 76 µM; in data set [17] it was 54 µM; in data set [18], 62 µM; in data set [19] it was 96 µM. Moreover, the IC50 in data set [20] amounted to 46 µM; in data set [21], 20 µM; in data set [22] it was 18 µM; in data set [23] it was 24 µM; in data set [24], 36 µM.
